Results: PMC11194663, “Synthesis and biological research of new imidazolone-sulphonamide-pyrimidine hybrids as potential EGFR-TK inhibitors and apoptosis-inducing agents” (RSC Advances, 2024)

Legend:
[1] = test system: breast MCF-7 cancerous cell line; assay: MTT cytotoxicity assay; conditions: Homo sapiens, MCF7, 24 h, read-out: IC50 (μM) MCF-7
EGFR-TK = molecular target: T1, EGFR-TK (Homo sapiens, UniProt P00533); assay: EGFR kinase inhibitory assay (BPS Bioscience EGFR Kinase Assay Kit); format: biochemical; conditions: mean of three replicates; read-out: IC50 on EGFR enzyme
T1 construct: purchased BPS Bioscience 40321
Protocol: S4.2.1. Cytotoxic activity evaluation […]
adenocarcinoma (MCF-7) cell line. Cell viability assay was assessed using MTT assay […]
under 5% CO2. After incubation, the cells were treated with different concentrations of the test imidazolone hybrids 5a-l and 6a,b and incubated for 24 h, then 20 µl of MTT […]
(DMSO) in volume of 100 µl was added to each well to dissolve the purple formazan that had formed. The color intensity of the formazan product, which represents the […]
USA) at 570 nm absorbance. The experimental conditions were carried out with at least three replicates, and the experiments were repeated at least three times.
S4.2.2. EGFR kinase Assay […]
activity according to manufacturer’s instructions using # BPS Bioscience EGFR

MCF-7 cells [2] = assay: Cell cycle analysis by flow cytometry (PI); format: cell-based; conditions: 1.05 μM (IC50), 48 h
Protocol: The impact of the best potent hybrid molecule on the cellular cycle distribution was further evaluated on the MCF-7 cell line.
S4.2.3. Cell cycle analysis of compound 6b
Cell cycle analysis in MCF-7 cells was investigated using fluorescent Annexin V-FITC/ PI detection kit (BioVision EZCellTM Cell Cycle Analysis Kit Catalog #K920) by flow cytometry assay. MCF-7 cells at a density of 2 × 10^5 per well were harvested and washed twice in PBS. After that, the cells were incubated at 37 °C and 5% CO2. The medium was incubated with the tested compound 6b at the IC50 (µM) for 48 h, washed twice in PBS, fixed with 70% ethanol, rinsed again with PBS. Afterward, medium was stained with DNA fluorochrome PI for 15 min at 37 °C. The samples were immediately analyzed using Facs Calibur flow cytometer (Becton and Dickinson, Heidelberg, […]
S4.2.4. Apoptosis assay for compound 6b
(1 picture or pasted object on this page, not shown here)

MCF-7 cells [3] = assay: Annexin V-FITC/PI apoptosis assay by flow cytometry; format: cell-based; conditions: IC50 concentration, 48 h
From the text: Apoptosis, a form of programmed cellular death, is a widespread phenomenon, occurring in processes such as morphogenesis, growth and development as well as normal turnover in adult tissue.[35] Most cells are programmed to die if survival signals are not received regularly from their environment.[36] It can be initiated by endogenous tissue-specific agents such as cytokines or exogenous cell-damaging agents such as chemicals.[37] It is evidenced from the literature that exposure to EGFR-TK inhibitors leads to cellular apoptosis.[38] Thus, the effect of examined 4-(furan-2-ylmethylene)imidazolone-sulphonamide-pyrimidine hybrid 6b on the apoptosis of the MCF-7 cells was assessed utilizing Annexin V-FITC/PI double labeling followed by flow cytometry (Fig. 4). […] 4-(furan-2-ylmethylene)imidazolone-sulphonamide-pyrimidine hybrid 6b induced 46.1% apoptosis in the MCF-7 cancer cells. Thus, it is evident that this compound had substantial apoptosis-inducing action against the MCF-7 breast cancerous cell line.
Apoptosis in MCF-7 cells was investigated using fluorescent Annexin V-FITC/ PI detection kit (BioVision Annexin V-FITC Apoptosis Detection Kit, Catalog #: K101) by flow cytometry assay. MCF-7 cells at a density of 2 × 10^5 per well were treated with compound 6b at the IC50 (µM) for 48 h, then the cells were harvested and stained with Annexin V-FITC/ PI dye for 15 min in the dark at 37 °C. The samples were immediately analyzed using FACS Calibur flow cytometer (Becton and Dickinson, […]

Bcl-2 = assay: qRT-PCR expression of pro-survival Bcl-2 in MCF-7 cells; format: cell-based; conditions: IC50 concentration, 48 h, MCF-7, decline
From the text: (§1) The Bcl-2 family members are essential in determining whether a cell will survive or perish since they reside upstream of the irreversible cellular damage.[40] Two groups of the Bcl-2 family proteins are distinguished by pro-survival (e.g. Bcl-2) or pro-apoptotic (Bax) activity.[41] The pro-apoptotic factors promote cellular death. When Bcl-2-associated x-protein (Bax) homodimerizes it enhances apoptosis. The anti-apoptotic effect of Bcl-2 may be due to its ability to inhibit Bax homodimerization.[42,43] […] It is noteworthy, that the level of pro-survival Bcl-2 protein declined by 0.28-fold compared to the control untreated cells. […] These findings support that 4-(furan-2-ylmethylene)imidazolone-sulphonamide-pyrimidine hybrid 6b induces apoptosis by regulating the expression of Bcl-2 family proteins.
(§2) Fig. 5 Roles of Bcl-2 family protein in apoptosis induced by 4-(furan-2-ylmethylene)imidazolone-sulphonamide-pyrimidine hybrid 6b. (A) Pro-survival Bcl-2 protein; (B) pro-apoptotic Bax protein. Cells underwent treatment with an IC50 concentration of imidazolone hybrids 6b for 48 h and the expression of apoptosis-related proteins was examined by qRT-PCR assay.

Bax = assay: qRT-PCR expression of pro-apoptotic Bax in MCF-7 cells; format: cell-based; conditions: IC50 concentration, 48 h, MCF-7, increase
From the text: as §1, §2

T1 sequence (P00533 25-1210): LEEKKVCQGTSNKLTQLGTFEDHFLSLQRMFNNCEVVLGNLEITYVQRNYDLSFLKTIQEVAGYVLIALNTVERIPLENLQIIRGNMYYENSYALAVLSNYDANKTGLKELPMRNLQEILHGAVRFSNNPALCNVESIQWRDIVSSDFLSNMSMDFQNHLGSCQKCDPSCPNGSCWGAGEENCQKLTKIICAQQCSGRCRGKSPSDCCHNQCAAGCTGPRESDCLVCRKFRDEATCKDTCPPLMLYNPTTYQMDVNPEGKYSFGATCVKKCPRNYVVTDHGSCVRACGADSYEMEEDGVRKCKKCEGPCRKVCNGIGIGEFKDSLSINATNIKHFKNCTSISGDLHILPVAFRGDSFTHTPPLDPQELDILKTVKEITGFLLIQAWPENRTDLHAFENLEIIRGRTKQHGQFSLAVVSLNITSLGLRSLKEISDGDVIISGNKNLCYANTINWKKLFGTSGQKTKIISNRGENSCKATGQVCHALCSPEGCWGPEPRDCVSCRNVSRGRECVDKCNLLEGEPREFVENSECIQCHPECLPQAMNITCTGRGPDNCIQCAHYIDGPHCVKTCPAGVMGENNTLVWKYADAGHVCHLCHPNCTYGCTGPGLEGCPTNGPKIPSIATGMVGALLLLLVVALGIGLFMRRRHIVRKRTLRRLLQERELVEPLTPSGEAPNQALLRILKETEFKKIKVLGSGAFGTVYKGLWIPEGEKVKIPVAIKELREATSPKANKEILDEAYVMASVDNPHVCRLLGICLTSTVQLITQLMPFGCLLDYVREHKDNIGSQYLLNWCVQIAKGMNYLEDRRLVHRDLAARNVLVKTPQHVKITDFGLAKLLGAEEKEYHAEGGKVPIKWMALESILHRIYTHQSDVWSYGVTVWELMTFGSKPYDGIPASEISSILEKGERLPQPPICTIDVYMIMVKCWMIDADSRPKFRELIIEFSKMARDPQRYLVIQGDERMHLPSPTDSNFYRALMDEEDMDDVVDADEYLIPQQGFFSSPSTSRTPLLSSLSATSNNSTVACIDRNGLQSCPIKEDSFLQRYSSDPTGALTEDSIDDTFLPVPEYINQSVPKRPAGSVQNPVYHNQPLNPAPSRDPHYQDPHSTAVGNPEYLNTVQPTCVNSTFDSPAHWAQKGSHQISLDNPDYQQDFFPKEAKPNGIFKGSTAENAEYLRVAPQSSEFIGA

Row | Structure (SMILES) | melting point [°C] | IC50 [1] [µM] | also measured
1 | COc1ccc(C2=N/C(=C\c3ccc(F)cc3)C(=O)N2c2ccc(S(=O)(=O)Nc3ncccn3)cc2)cc1 [5g, (Z)-4-(4-(4-fluorobenzylidene)-2-(4-methoxyphenyl)-5-oxo-4,5-dihydro-1H-imidazole-1-yl)-N-(pyrimidin-2-yl)benzenesulfonamide] | 257 to 259 | 4.57 ± 0.09 | 
2 | COc1ccc(C2=N/C(=C\c3ccc(Cl)cc3)C(=O)N2c2ccc(S(=O)(=O)Nc3ncccn3)cc2)cc1 [5h, (Z)-4-(4-(4-chlorobenzylidene)-2-(4-methoxyphenyl)-5-oxo-4,5-dihydro-1H-imidazole-1-yl)-N-(pyrimidin-2-yl)benzenesulfonamide] | 262 to 264 | 3.71 ± 0.2 | IC50 (EGFR-TK): 0.16 µM
3 | COc1ccc(/C=C2\N=C(c3ccccc3)N(c3ccc(S(=O)(=O)Nc4ncccn4)cc3)C2=O)c(OC)c1OC [5e, (Z)-4-(5-oxo-2-phenyl-4-(2,3,4-trimethoxybenzylidene)-4,5-dihydro-1H-imidazole-1-yl)-N-(pyrimidin-2-yl)benzenesulfonamide] | 210 to 212 | 37.2 ± 1.98 | 
4 | COc1cccc2c1C(=O)c1c(O)c3c(c(O)c1C2=O)C[C@@](O)(C(=O)CO)C[C@@H]3O[C@H]1C[C@H](N)[C@H](O)[C@H](C)O1 [Dox, doxorubicin, reference compound] |  | 1.91 ± 0.07 | 
5 | CC(=O)Oc1c(Br)cc(/C=C2\N=C(c3ccccc3)N(c3ccc(S(=O)(=O)Nc4ncccn4)cc3)C2=O)cc1Br [5d, (Z)-2,6-dibromo-4-((5-oxo-2-phenyl-1-(4-(N-pyrimidin-2-ylsulfamoyl)phenyl)-1H-imidazole-4(5H)-ylidene)methyl)phenyl acetate] | 243 to 245 | 29.4 ± 1.64 | 
6 | COc1ccc(C2=N/C(=C\c3ccc([N+](=O)[O-])cc3)C(=O)N2c2ccc(S(=O)(=O)Nc3ncccn3)cc2)cc1 [5j, (Z)-4-(2-(4-methoxyphenyl)-4-(4-nitrobenzylidene)-5-oxo-4,5-dihydro-1H-imidazole-1-yl)-N-(pyrimidin-2-yl)benzenesulfonamide] | > 300 | 3.14 ± 0.16 | IC50 (EGFR-TK): 0.21 µM
7 | COc1ccc(C2=N/C(=C\c3ccc(Br)cc3)C(=O)N2c2ccc(S(=O)(=O)Nc3ncccn3)cc2)cc1 [5i, (Z)-4-(4-(4-bromobenzylidene)-2-(4-methoxyphenyl)-5-oxo-4,5-dihydro-1H-imidazole-1-yl)-N-(pyrimidin-2-yl)benzenesulfonamide] | 284 to 286 | 9.98 ± 0.61 | 
8 | COc1ccc(C2=N/C(=C\c3cc(Br)c(OC(C)=O)c(Br)c3)C(=O)N2c2ccc(S(=O)(=O)Nc3ncccn3)cc2)cc1 [5k, (Z)-2,6-dibromo-4-((2-(4-methoxyphenyl)-5-oxo-1-(4-(N-pyrimidin-2-ylsulfamoyl)phenyl)-1H-imidazole-4(5H)-ylidene)methyl)phenyl acetate] | 239 to 241 | 14.5 ± 0.65 | 
9 | COc1ccc(C2=N/C(=C\c3cc(OC)c(OC)c(OC)c3)C(=O)N2c2ccc(S(=O)(=O)Nc3ncccn3)cc2)cc1 [5l, (Z)-4-(2-(4-methoxyphenyl)-5-oxo-4-(3,4,5-trimethoxybenzylidene)-4,5-dihydro-1H-imidazole-1-yl)-N-(pyrimidin-2-yl)benzenesulfonamide] | 247 to 249 | 25.8 ± 1.24 | 
10 | COc1ccc(C2=N/C(=C\c3ccco3)C(=O)N2c2ccc(S(=O)(=O)Nc3ncccn3)cc2)cc1 [6b, (Z)-4-(4-(furan-2-ylmethylene)-2-(4-methoxyphenyl)-5-oxo-4,5-dihydro-1H-imidazole-1-yl)-N-(pyrimidin-2-yl)benzenesulfonamide] |  | 1.05 ± 0.04 | IC50 (EGFR-TK): 0.09 µM; MCF-7 cells in G2/M phase (MCF-7 cells [2]; control 13.7%): 10.8%; MCF-7 cells in S phase (MCF-7 cells [2]; control 35.1%): 24.3%; MCF-7 cells in G1 phase (MCF-7 cells [2]; control 51.2%): 64.9%; apoptosis induced in MCF-7 cells (total) (MCF-7 cells [3]): 46.1%; apoptotic cells in the late stage (upper right quadrant) (MCF-7 cells [3]; control 0.2%): 23.4%; apoptotic cells in the early stage (lower right quadrant) (MCF-7 cells [3]; control 0.6%): 22.7%; Bcl-2 expression level relative to untreated control (Bcl-2): 0.28 fold; Bax expression level relative to untreated control (Bax): 4.54 fold

Now from value to compound, other results behind:

Row | melting point [°C] | Structure (SMILES) | IC50 [1] [µM] | also measured
11 | 258 to 260 | COc1ccc(C2=N/C(=C\c3ccccc3)C(=O)N2c2ccc(S(=O)(=O)Nc3ncccn3)cc2)cc1 [5f, (Z)-4-(4-benzylidene-2-(4-methoxyphenyl)-5-oxo-4,5-dihydro-1H-imidazole-1-yl)-N-(pyrimidin-2-yl)benzenesulfonamide] | 85.2 ± 4.72 | 
12 | 188 to 190 | O=C1/C(=C/c2ccccc2O)N=C(c2ccccc2)N1c1ccc(S(=O)(=O)Nc2ncccn2)cc1 [5b, (Z)-4-(4-(2-hydroxybenzylidene)-5-oxo-2-phenyl-4,5-dihydro-1H-imidazole-1-yl)-N-(pyrimidin-2-yl)benzenesulfonamide] | 31.4 ± 1.64 | 
13 | 291 to 293 | O=C1/C(=C/c2ccco2)N=C(c2ccccc2)N1c1ccc(S(=O)(=O)Nc2ncccn2)cc1 [6a, (Z)-4-(4-(furan-2-ylmethylene)-5-oxo-2-phenyl-4,5-dihydro-1H-imidazole-1-yl)-N-(pyrimidin-2-yl)benzenesulfonamide] | 5.09 ± 0.31 | 
14 | 290 to 292 | O=C1/C(=C/c2ccc(Br)cc2)N=C(c2ccccc2)N1c1ccc(S(=O)(=O)Nc2ncccn2)cc1 [5a, (Z)-4-(4-(4-bromobenzylidene)-5-oxo-2-phenyl-4,5-dihydro-1H-imidazole-1-yl)-N-(pyrimidin-2-yl)benzenesulfonamide] | 14.1 ± 0.68 | 
15 | 277 to 279 | Cc1ccc(/C=C2\N=C(c3ccccc3)N(c3ccc(S(=O)(=O)Nc4ncccn4)cc3)C2=O)cc1 [5c, (Z)-4-(4-(4-methylbenzylidene)-5-oxo-2-phenyl-4,5-dihydro-1H-imidazole-1-yl)-N-(pyrimidin-2-yl)benzenesulfonamide] | 43.9 ± 2.24 | 
